# According to paper PMC10305181, “A VEGFB-Based Peptidomimetic Inhibits VEGFR2-Mediated PI3K/Akt/mTOR and PLCγ/ERK Signaling and Elicits Apoptotic, Antiangiogenic, and Antitumor Activities” (Pharmaceuticals, 2023):
# Bridge positions count the residues as written; N and C are the ends. Peptide text beside a SMILES is read from it.
# How the values were obtained:
# [1] = test system: 4T1 cells; assay: TUNEL assay, 4T1 cells; type: cell-based, murine; conditions: 0.40 μM, n = 3, p = 0.0002
# Description: Periodic boundary conditions were used, and bonds were restrained by applying the LINCS algorithm to their equilibrium position. Initial structures were solvated with three-point model water molecules in a cubic box of 1.0 nm to fully cover the protein system in water, following periodic boundary conditions (PBC). The produced system for each peptide was neutralized through the “genion tool” plugin of the GROMACS package by adding ions Na+ and Cl−. Then, the system was minimized for 50000 iterations using the steepest descent (SD) algorithm and using velocity rescaling (modiﬁed Berendsen) temperature coupling and Parrinello-Rahman pressure coupling methods, simulated under an isothermal-isobaric ensemble (NPT) for 5 ns at a constant temperature, the pressure of 300 K, and 1 atm, respectively. The NVT and NPT equilibration was carried out for 50000 steps. The minimization and equilibration procedures were executed, and finally, one system of the peptide was subjected to a 200 ns production run of MD simulations utilizing 2 fs as the time step and coordinates of all atoms were recorded in the form of .trr GROMACS trajectory ﬁle every 10 ps.
# 2 × 10^3 HUVE or 4T1 cells were cultured in DMEM and RPMI-1640 media, respectively, supplemented with 10% (v/v) FBS overnight. Then, the cells were incubated in the media supplemented with 5% FBS, with PBS or C-VGB3 (0.40 μM). […]
# [2] = test system: signaling proteins in 4T1 MCT cells; assay: Western blot analysis, 4T1 cells; type: cell-based, murine
# Procedure: Next, VEGFR2 signaling was investigated in 4T1 MCTs. […] Considering the implication of the PI3K/AKT/mTOR signaling pathway in most human cancers, the effect of C-VGB3 on this pathway was evaluated in 4T1 MCT cells. […] The NF-κB pathway is an important target of AKT, which contributes to abnormal cell proliferation and differentiation, the inhibition of apoptosis, enhanced metastasis, and treatment resistance. Therefore, the inhibition of upstream AKT signaling would be expected to downregulate NF-κB and/or p-NF-κB.
# The levels of signaling proteins were investigated by the Western blot assay. 4T1 and HUVE cells stimulated by VEGF (20 ng·mL^−1) were treated with (0.40 μM) or without C-VGB3 (treatment and control groups, respectively) after starvation in a serum-free medium for 24 h. After washing with PBS buffer twice, the cells were treated with RIPA lysis buffer containing (Sigma, St. Louis, MO, USA). Bradford′s test was performed to estimate the protein concentration. Equal amounts of total protein were electrophoresed on a 10% SDS-polyacrylamide gel, separated, and then transferred to a nitrocellulose membrane. Nitrocellulose was soaked in a blocking buffer containing 5% dry milk, Tris-buffered saline, and Tween 20 (TBST) for 1 h at ambient temperature. The nitrocellulose membrane was then washed with wash buffer and treated with antibodies against VEGFR2 p-VEGFR2, AKT, p-AKT, PI3K, mTOR, p-mTOR, NF-κB, p-NFκB, P53, MDM2, Bax, Bcl2, Bid, Bim, Apaf-1, cytochrome c, caspase-9, Fas (CD95), DR4 (CD261), DR5 (CD262), caspase3, caspase7, caspase8, PARP1, ERK 1/2, p-ERK1/2, Ras, Raf, Cdk4, GSK-3β, cyclin D1, vimentin, N-cadherin, E-cadherin, FAK, p-FAK, paxillin, p-paxillin, and β-actin overnight at 4 °C. The next steps were performed as described previously. Because molecular weight ranges of target signaling proteins are very close, individual gels were run for separate signaling proteins (Figure S7).
structure (smiles),measurement,setting,value
CC(C)C[C@@H]1NC(=O)CNC(=O)[C@H](CC(=O)O)NC(=O)[C@H](CC(=O)O)NC(=O)[C@@H]2CCCN2C(=O)[C@@H]2CCCN2C(=O)[C@H](CCCNC(=N)N)NC(=O)[C@@H](NC(=O)[C@@H](N)CCC(=O)O)CSSC[C@@H](C(=O)O)NC1=O [C-VGB3] (H-ECRPPDDGLC-OH; disulfide 2-10),TUNEL fluorescent labeling,[1],fluorescent-labeled more than control cells
same,increase in cleaved PARP1,"[2]; 4T1 (second of 'respectively'), 0.40 μM, p < 0.0001",4.05 fold
same,Fas expression,"[2]; 4T1, 0.40 μM",not affected
same,increase in Bax/Bcl2 ratio,"[2]; 4T1, 0.40 μM",~5.25 fold
same,increased level of cleaved caspase-3,"[2]; 4T1, 0.40 μM",4.0 times
same,increased level of cleaved caspase-7,"[2]; 4T1, 0.40 μM",4.1 times
same,increased level of cleaved caspase-9,"[2]; 4T1, 0.40 μM",3.5 times
same,Bax level,"[2]; 4T1, 0.40 μM, p < 0.0001",increased
same,DR4 level,"[2]; 4T1, 0.40 μM, p < 0.0001",increase
same,MDM2 level,"[2]; 4T1, 0.40 μM, p < 0.0001",markedly decreased
same,P53 level,"[2]; 4T1, 0.40 μM, p < 0.0001",enormously increased
same,VEGFR2 level,"[2]; 4T1, 0.40 μM, p < 0.0001",suppressed
same,paxillin,"[2]; 4T1, 0.40 μM, p < 0.0001",substantially inhibited
same,p-VEGFR2 level,"[2]; 4T1, 0.40 μM, p = 0.0001",suppressed
same,p-paxillin,"[2]; 4T1, 0.40 μM, p = 0.0001",substantially inhibited
same,Apaf-1,"[2]; 4T1, 0.40 μM, p = 0.001",promoted
same,Bcl2 expression,"[2]; 4T1, 0.40 μM, p = 0.001",decrease
same,Bid expression level,"[2]; 4T1, 0.40 μM, p = 0.001",increased
same,DR5 level,"[2]; 4T1, 0.40 μM, p = 0.001",increase
same,E-cadherin expression,"[2]; 4T1, 0.40 μM, p = 0.001",potently increased
same,FAK,"[2]; 4T1, 0.40 μM, p = 0.001",substantially inhibited
same,N-cadherin level,"[2]; 4T1, 0.40 μM, p = 0.001",reduced
same,p-AKT level,"[2]; 4T1, 0.40 μM, p = 0.001",significantly decreased
same,p-FAK,"[2]; 4T1, 0.40 μM, p = 0.001",substantially inhibited
same,p-mTOR level,"[2]; 4T1, 0.40 μM, p = 0.001",significantly decreased
same,Bim level,"[2]; 4T1, 0.40 μM, p = 0.02",increased
same,NF-κB level,"[2]; 4T1, 0.40 μM, p = 0.02",decreased levels
same,PI3K level,"[2]; 4T1, 0.40 μM, p = 0.02",significantly decreased
same,cytochrome c release,"[2]; 4T1, 0.40 μM, p = 0.02",promoted
same,mTOR level,"[2]; 4T1, 0.40 μM, p = 0.02",significantly decreased
same,p-NF-κB level,"[2]; 4T1, 0.40 μM, p = 0.02",decreased levels
same,vimentin level,"[2]; 4T1, 0.40 μM, p = 0.02",reduced
